Values of other authors, collected in patent US20080161405A1, “Biguanide Composition and Method of Treatment and Prevention of Infections” (priority 2006, published 2008).
In brackets after ≈: the same amount, converted by molar mass.

Experiments:
[1] = test system: acanthamoeba cysts and trophazoites
Aspergillus keratitis = details: 0.02%
Fusarium Keratomycosis = details: 0.02% solution, rabbit model
Acanthamoeba keratitis = details: case report, recurrence in the eye

| Molecule | minimum inhibitory concentration [1] [µg/mL] | effectiveness in experimental Aspergillus keratitis (Aspergillus keratitis) | reduction of fungal growth (Fusarium Keratomycosis) | treatment of recurrence of Acanthamoeba keratitis (Acanthamoeba keratitis) |
| --- | --- | --- | --- | --- |
| CCCCC(CC)CNC(=N)NC(=N)NCCCCCCNC(=N)NC(=N)NCC(CC)CCCC (stereo not shown) [Alexidine, 1,1′-hexamethylene-bis[5-(2-ethylhexyl)biguanide]] | 6.3 (≈ 12.4 µM) | – | – | – |
| poly(hexamethylene biguanide) [polyhexamethylene biguanide] | – | moderately effective | effective at reducing fungal growth | successfully treated |
